For 1 compound, IC50 and Ratio results are on record in US20050113292A1 (priority 2003, published 2005).

By pIC50 is commonly meant the negative decadic logarithm of the IC50, by convention in mol/L. Low readings indicate a high IC50, high ones a low IC50.

pIC50: −log10 of the molar value.

On to `CC[C@H](C)[C@H](NC(=O)[C@H](CC(C)C)NC(=O)[C@H](CO)NC(=O)[C@H](Cc1c[nH]cn1)NC(=O)[C@@H](NC(=O)[C@H](CC(C)C)NC(=O)[C@H](CO)NC(=O)[C@@H](NC(=O)[C@H](Cc1ccc(O)cc1)NC(=O)[C@H](CC(N)=O)NC(=O)[C@H](CC(N)=O)NC(=O)[C@@H](NC(=O)[C@H](CCC(=O)O)NC(=O)[C@H](CCCNC(=N)N)NC(=O)[C@H](CC(=O)O)NC(=O)[C@H](Cc1c[nH]c2ccccc12)NC(=O)[C@H](CCC(=O)O)NC(=O)[C@H](CCSC)NC(=O)[C@H](Cc1c[nH]c2ccccc12)NC(=O)[C@@H]1CSC(C(=O)N[C@@H](CCCCNC(=O)CCCCCNC(=O)CCCCCNC(=O)[C@H](CCCCNC(=O)CCCCCNC(=O)CCCCCNC(=O)CCCCCNC(=O)[C@H](CCCCN)NC(=O)C2N[C@H](C(=O)N[C@@H](Cc3c[nH]c4ccccc34)C(=O)N[C@@H](CCSC)C(=O)N[C@@H](CCC(=O)O)C(=O)N[C@@H](Cc3c[nH]c4ccccc34)C(=O)N[C@@H](CC(=O)O)C(=O)N[C@@H](CCCNC(=N)N)C(=O)N[C@@H](CCC(=O)O)C(=O)N[C@H](C(=O)N[C@@H](CC(N)=O)C(=O)N[C@@H](CC(N)=O)C(=O)N[C@@H](Cc3ccc(O)cc3)C(=O)N[C@H](C(=O)N[C@@H](CO)C(=O)N[C@@H](CC(C)C)C(=O)N[C@H](C(=O)N[C@@H](Cc3c[nH]cn3)C(=O)N[C@@H](CO)C(=O)N[C@@H](CC(C)C)C(=O)N[C@H](C(=O)N[C@@H](CCC(=O)O)C(=O)N[C@@H](CCC(=O)O)C(=O)N[C@@H](CO)C(=O)N[C@@H](CCC(N)=O)C(=O)N[C@@H](CC(N)=O)C(=O)N[C@@H](CCC(N)=O)C(=O)N[C@@H](CCC(N)=O)C(=O)N[C@@H](CCC(=O)O)C(=O)N[C@@H](CCCCN)C(=O)N[C@@H](CC(N)=O)C(=O)N[C@@H](CCC(=O)O)C(=O)N[C@@H](CCC(N)=O)C(=O)N[C@@H](CCC(=O)O)C(=O)N[C@@H](CC(C)C)C(=O)N[C@@H](CC(C)C)C(=O)O)[C@@H](C)CC)[C@@H](C)CC)[C@@H](C)O)[C@@H](C)CC)CS2)NC(=O)C2N[C@H](C(=O)N[C@@H](Cc3c[nH]c4ccccc34)C(=O)N[C@@H](CCSC)C(=O)N[C@@H](CCC(=O)O)C(=O)N[C@@H](Cc3c[nH]c4ccccc34)C(=O)N[C@@H](CC(=O)O)C(=O)N[C@@H](CCCNC(=N)N)C(=O)N[C@@H](CCC(=O)O)C(=O)N[C@H](C(=O)N[C@@H](CC(N)=O)C(=O)N[C@@H](CC(N)=O)C(=O)N[C@@H](Cc3ccc(O)cc3)C(=O)N[C@H](C(=O)N[C@@H](CO)C(=O)N[C@@H](CC(C)C)C(=O)N[C@H](C(=O)N[C@@H](Cc3c[nH]cn3)C(=O)N[C@@H](CO)C(=O)N[C@@H](CC(C)C)C(=O)N[C@H](C(=O)N[C@@H](CCC(=O)O)C(=O)N[C@@H](CCC(=O)O)C(=O)N[C@@H](CO)C(=O)N[C@@H](CCC(N)=O)C(=O)N[C@@H](CC(N)=O)C(=O)N[C@@H](CCC(N)=O)C(=O)N[C@@H](CCC(N)=O)C(=O)N[C@@H](CCC(=O)O)C(=O)N[C@@H](CCCCN)C(=O)N[C@@H](CC(N)=O)C(=O)N[C@@H](CCC(=O)O)C(=O)N[C@@H](CCC(N)=O)C(=O)N[C@@H](CCC(=O)O)C(=O)N[C@@H](CC(C)C)C(=O)N[C@@H](CC(C)C)C(=O)O)[C@@H](C)CC)[C@@H](C)CC)[C@@H](C)O)[C@@H](C)CC)CS2)C(N)=O)N1)[C@@H](C)CC)[C@@H](C)O)[C@@H](C)CC)C(=O)N[C@@H](CCC(=O)O)C(=O)N[C@@H](CCC(=O)O)C(=O)N[C@@H](CO)C(=O)N[C@@H](CCC(N)=O)C(=O)N[C@@H](CC(N)=O)C(=O)N[C@@H](CCC(N)=O)C(=O)N[C@@H](CCC(N)=O)C(=O)N[C@@H](CCC(=O)O)C(=O)N[C@@H](CCCCN)C(=O)N[C@@H](CC(N)=O)C(=O)N[C@@H](CCC(=O)O)C(=O)N[C@@H](CCC(N)=O)C(=O)N[C@@H](CCC(=O)O)C(=O)N[C@@H](CC(C)C)C(=O)N[C@@H](CC(C)C)C(=O)O` (stereo partly drawn) [Compound 3α3-C34], for which the negative logarithm of the IC50 (pIC50) was 9.60 with HIV-1 92HT599.24; 9.80 in the assay on HIV-1 92MW965.26; 7.99 in the assay with HIV-1 89.6; 9.14 in the assay on HIV-1 NL4-3; 8.80 in the assay with NL4-3 (MT-4); 9.22 with HIV-1 92UG024.2. For the same compound, the negative logarithm of the IC50 (pIC50) in the assay with HIV-1 pNLHxB is 9.12; in the assay with T-20 Resistant Virus it was 9.47; in the assay with T20-resistant virus, 9.33. Besides, the Ratio in the assay on T-20 Resistant Virus was 0.21.
